Test results from patent US20240165196A1, “Beta-Lactamase Inhibitors” (VIB VZW, priority 2021, published 2024).

Assays:
E. coli strain UZ_TEM104 [1] = format: cell-based; details: peptide alone
Source text: In order to generate a synthetic amyloid peptide capable of inactivating the TEM-1 beta-lactamase enzyme by capitalizing on its aggregation propensity, we applied a previously developed design pattern for synthetic aggregating sequences. This involves a tandem repeat of the APR, each instance flanked by charged amino acids for solubility and separated by a short peptide linker^19,20,23 (FIG. 2G). Previous work has shown that good bacterial uptake can be achieved using one positively charged arginine residue on the N-terminal side of each APR in the tandem and two arginine residues on the C-terminal side. This has the additional benefit of reducing the self-aggregation of the peptides and increasing their solubility prior to target engagement. As before, we employed a single Pro residue as a linker between the APRs and focused on an APR length of seven, extending shorter APRs to this length by incorporating flanking amino acids unless they were obvious aggregation breakers (Arg, Lys, Asp, Glu or Pro, see Table 1). We obtained these peptides from solid phase synthesis, followed by HPLC purification to a purity judged by reverse phase chromatography of at least 90% (Genscript).
Determination of MIC values using the broth microdilution in the 96-well plate (BD Biosciences, Belgium) according to the EUCAST guideline, which was performed in 96-well polystyrene flat bottom microtiter plates (BD Biosciences). Briefly, a single colony was inoculated into 5 mL Difco™ Mueller Hinton Broth (BD Biosciences Ref 275730) and grown to the end-exponential growth phase in a shaking incubator at 37° C. Cultures were subsequently diluted to an MacFarland (0.5 optical density) then the culture was diluted to reach 10^6 CFU/mL in fresh MHB medium. 50 μl of different concentration of peptides ranging from 128 to 2 μg/mL were serially diluted to the sterile 96-well plate in MHB. 50 μL of the diluted bacteria in MHB were pipetted into 96-well plates to reach the final volume of 100 μL. The bacteria grown with the maximum concentration of carrier and medium were considered as positive and negative controls, respectively. The plates were statically incubated overnight at 37° C. to allow bacterial growth. OD was measured at 590 nm a multipurpose ultraviolet-visible plate reader, and the absorbance of the growth bacteria was measured using absorbance reader. Bacterial growth was also visually inspected and agreed well with the OD reading.

E. coli strain UZ_TEM104 [2] = format: cell-based
[3] = system: primary Human Umbilical Vein Endothelial Cells (HUVEC); format: cell-based
HEK293 = format: cell-based, human
[4] = system: 16 additional E. coli clinical isolates containing TEM or SHV enzymes; experiment: MIC of ampicillin with fixed 30 μg/ml TEM3.2, isolate panel summary; format: cell-based; details: 14 out of 16 isolates
Protocol: Moreover, the core sequence of peptide TEM3.0 also occurs in the structurally related SHV β-lactamase (FIG. 2E). Although the C-terminal extension residues H and N have been replaced with physicochemically similar R and Q, respectively (FIG. 2H). […] To quantify the synergy between these four peptides and penicillin G, we performed a so-called checkerboard assay, which allows to compare the activity of two test compounds co-incubated (here peptide and a beta-lactam antibiotic), to their individual activities in isolation. The result from the assay is quantified as the Fractional Inhibitory Concentration Index (FICI), and it is generally accepted that values below 0.5 indicate synergistic effects between the compounds. […] We evaluated the synergy of the peptides with penicillin G in clinical E. coli isolates carrying the TEM (FIG. 2I) or SHV enzymes (FIG. 2J). […]
Determination of MIC values using the broth microdilution in the 96-well plate (BD Biosciences, Belgium) according to the EUCAST guideline, which was performed in 96-well polystyrene flat bottom microtiter plates (BD Biosciences). […] OD was measured at 590 nm a multipurpose ultraviolet-visible plate reader, and the absorbance of the growth bacteria was measured using absorbance reader. Bacterial growth was also visually inspected and agreed well with the OD reading.

human erythrocytes = format: cell-based
Source text: FIGS. 4A-4K. […] IV—Intravenous, IP—Intraperitoneal, SC—Subcutaneously. The data shown is from a single experiment with 4 animals per group. […] (ns—non significant, #—P>0.05, *—P≤0.05, ***—P≤0.01, ****—P≤0.001). (FIG. 4G) FICI plot as in FIG. 2, for the E. coli strains indicated and the combination of penicillin and the TEM3.2 peptide. […] (FIG. 4J) Same as FIG. 4H for peptide BGAL. (FIG. 4K) Same as FIG. 4H for peptide P33.
Given this broad activity on clinical isolates, we wondered if the TEM3.2 peptide could be used to re-sensitize bacteria to ampicillin treatment in vivo, in a mouse Urinary Tract Infection (UTI) model.
EDTA was used as the anticoagulant. […] Plate centrifuged for 10 min at 3000×g. […] Erythrocytes in 1% Triton and maximum used concentration of buffer were used as the control of 100% and 0% hemolysis, respectively.

| Substance | MIC peptide (E. coli strain UZ_TEM104 [1]) [µg/mL] | reduction of the MIC of penicillin G (E. coli strain UZ_TEM104 [2]; additive at fixed 50 μg/mL) [fold] | MIC penicillin (E. coli strain UZ_TEM104 [2]; in presence of additive at 50 μg/mL) [µg/mL] | cytotoxicity (Cell Titer Blue) [3] | cytotoxicity (Cell Titer Blue) (HEK293) | clinical isolates sensitized to ampicillin [4] [%] | hemolysis of human erythrocytes (human erythrocytes) |
| --- | --- | --- | --- | --- | --- | --- | --- |
| Ac-RLTAFLHNRRPRLTAFLHNRR-NH2 [TEM3.0] | >100 | 8 | 200 | – | – | – | – |
| Ac-RLTAFLHNRRPRLTAFLRQRR-NH2 [TEM3.2] | – | – | – | not cytotoxic | not cytotoxic | 87 | not hemolytic |
